Test results as given in patent publication US20260356819A1, “OXOISOINDOLINYL-SUBSTITUTED […] DERIVATIVE AND USE THEREOF” (GLUETACS THERAPEUTICS (SHANGHAI) CO., LTD., priority 2023, published 2026).

Assays:
Format in all cases: cell-based
Conditions in all cases: compounds at 50 nM and 500 nM
IKZF1 = biological target: T1, IKZF1 (Homo sapiens, UniProt Q13422+Q96SW2); assay: Western blot degradation of IKZF1 in hPBMCs (24 h)
T1 construct: The supernatant was aspirated as the extracted total cell protein; endogenous in cells; host or cells: human peripheral blood mononuclear cells (hPBMCs)
T1 sequence (Q13422 whole entry): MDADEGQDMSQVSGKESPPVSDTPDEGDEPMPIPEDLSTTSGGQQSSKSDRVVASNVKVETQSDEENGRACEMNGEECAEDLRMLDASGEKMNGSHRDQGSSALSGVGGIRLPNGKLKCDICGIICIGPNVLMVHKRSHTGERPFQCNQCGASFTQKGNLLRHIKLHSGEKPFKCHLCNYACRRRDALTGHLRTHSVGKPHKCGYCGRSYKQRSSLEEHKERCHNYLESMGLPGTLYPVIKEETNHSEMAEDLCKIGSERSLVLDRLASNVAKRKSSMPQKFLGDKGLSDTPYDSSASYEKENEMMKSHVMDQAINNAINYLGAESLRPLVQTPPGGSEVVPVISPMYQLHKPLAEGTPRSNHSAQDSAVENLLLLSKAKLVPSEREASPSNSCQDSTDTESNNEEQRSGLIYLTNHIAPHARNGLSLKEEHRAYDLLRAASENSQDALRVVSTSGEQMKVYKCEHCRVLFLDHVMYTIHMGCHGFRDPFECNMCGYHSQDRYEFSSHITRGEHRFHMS
T1 sequence (Q96SW2 whole entry): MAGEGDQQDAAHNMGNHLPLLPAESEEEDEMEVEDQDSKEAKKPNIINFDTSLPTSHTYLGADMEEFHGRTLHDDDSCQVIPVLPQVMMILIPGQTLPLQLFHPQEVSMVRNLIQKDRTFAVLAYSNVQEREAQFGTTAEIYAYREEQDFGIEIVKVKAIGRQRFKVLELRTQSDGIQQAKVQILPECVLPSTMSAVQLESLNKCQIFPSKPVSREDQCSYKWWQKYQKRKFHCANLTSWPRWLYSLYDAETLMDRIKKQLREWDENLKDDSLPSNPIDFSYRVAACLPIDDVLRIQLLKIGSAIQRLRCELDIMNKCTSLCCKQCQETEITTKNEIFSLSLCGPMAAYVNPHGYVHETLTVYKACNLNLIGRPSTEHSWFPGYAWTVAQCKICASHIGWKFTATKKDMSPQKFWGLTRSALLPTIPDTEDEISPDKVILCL
T1 sequence (Q16531 whole entry partner): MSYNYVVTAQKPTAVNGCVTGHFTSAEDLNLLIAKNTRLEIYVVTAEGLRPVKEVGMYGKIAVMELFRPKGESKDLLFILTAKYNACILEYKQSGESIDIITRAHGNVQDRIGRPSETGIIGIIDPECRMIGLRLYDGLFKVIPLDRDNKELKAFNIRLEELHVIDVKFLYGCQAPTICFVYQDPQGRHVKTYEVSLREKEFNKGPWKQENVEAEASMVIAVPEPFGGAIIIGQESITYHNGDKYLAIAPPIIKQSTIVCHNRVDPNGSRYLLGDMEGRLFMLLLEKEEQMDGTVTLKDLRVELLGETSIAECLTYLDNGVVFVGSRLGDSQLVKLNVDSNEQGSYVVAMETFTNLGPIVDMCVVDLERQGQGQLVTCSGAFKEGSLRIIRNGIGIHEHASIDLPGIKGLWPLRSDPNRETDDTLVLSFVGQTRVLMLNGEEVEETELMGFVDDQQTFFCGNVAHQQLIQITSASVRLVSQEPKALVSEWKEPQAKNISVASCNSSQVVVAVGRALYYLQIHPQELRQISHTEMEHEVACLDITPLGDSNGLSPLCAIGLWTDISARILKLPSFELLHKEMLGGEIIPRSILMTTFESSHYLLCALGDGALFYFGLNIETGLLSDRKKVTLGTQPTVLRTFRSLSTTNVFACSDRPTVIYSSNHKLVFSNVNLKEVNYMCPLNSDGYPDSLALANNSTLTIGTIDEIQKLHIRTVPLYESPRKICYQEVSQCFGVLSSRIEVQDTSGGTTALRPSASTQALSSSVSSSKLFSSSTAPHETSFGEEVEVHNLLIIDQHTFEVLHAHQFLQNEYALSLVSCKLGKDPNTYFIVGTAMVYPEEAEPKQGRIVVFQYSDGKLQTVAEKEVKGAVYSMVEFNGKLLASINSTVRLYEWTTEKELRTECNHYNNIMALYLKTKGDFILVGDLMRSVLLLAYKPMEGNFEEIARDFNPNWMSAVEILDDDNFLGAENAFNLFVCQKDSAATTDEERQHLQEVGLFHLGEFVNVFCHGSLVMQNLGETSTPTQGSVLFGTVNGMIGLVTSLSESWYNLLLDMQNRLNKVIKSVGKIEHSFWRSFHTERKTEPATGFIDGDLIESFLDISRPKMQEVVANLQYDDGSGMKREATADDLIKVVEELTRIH
Summary of the method: (§1)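 PBMC Western blot, 24 h treatment; test levels 50 nM and 500 nM. Band density ÷ internal control, normalised → % remaining; degradation (%) = 1 − remaining.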

IKZF2 = biological target: T2, IKZF2 (Homo sapiens, UniProt Q96SW2+Q9UKS7); assay: Western blot degradation of IKZF2 in hPBMCs (24 h)
T2 construct: The supernatant was aspirated as the extracted total cell protein; endogenous in cells; host or cells: human peripheral blood mononuclear cells (hPBMCs)
T2 sequence (Q9UKS7 whole entry): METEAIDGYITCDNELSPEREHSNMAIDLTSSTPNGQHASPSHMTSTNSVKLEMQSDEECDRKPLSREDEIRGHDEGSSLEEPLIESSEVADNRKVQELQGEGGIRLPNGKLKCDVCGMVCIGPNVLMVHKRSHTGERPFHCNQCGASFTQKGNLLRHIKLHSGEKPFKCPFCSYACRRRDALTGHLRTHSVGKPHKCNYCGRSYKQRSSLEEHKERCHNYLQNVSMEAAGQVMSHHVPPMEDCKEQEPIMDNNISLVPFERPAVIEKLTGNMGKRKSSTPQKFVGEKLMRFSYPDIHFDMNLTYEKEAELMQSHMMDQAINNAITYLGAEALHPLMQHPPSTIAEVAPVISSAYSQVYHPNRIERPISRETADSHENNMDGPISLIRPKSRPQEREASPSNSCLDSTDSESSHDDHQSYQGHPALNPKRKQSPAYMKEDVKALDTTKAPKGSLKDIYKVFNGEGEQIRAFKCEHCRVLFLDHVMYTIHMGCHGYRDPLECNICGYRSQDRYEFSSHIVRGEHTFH
T2 sequence (Q96SW2 whole entry): as the sequence (Q96SW2 whole entry) above
T2 sequence (Q16531 whole entry partner): as the sequence (Q16531 whole entry partner) above
Summary of the method: as §1

WEE1 = biological target: T3, WEE1 (Homo sapiens, UniProt P30291+Q96SW2); assay: Western blot degradation of WEE1 in hPBMCs (24 h)
T3 construct: The supernatant was aspirated as the extracted total cell protein; endogenous in cells; host or cells: human peripheral blood mononuclear cells (hPBMCs)
T3 sequence (P30291 whole entry): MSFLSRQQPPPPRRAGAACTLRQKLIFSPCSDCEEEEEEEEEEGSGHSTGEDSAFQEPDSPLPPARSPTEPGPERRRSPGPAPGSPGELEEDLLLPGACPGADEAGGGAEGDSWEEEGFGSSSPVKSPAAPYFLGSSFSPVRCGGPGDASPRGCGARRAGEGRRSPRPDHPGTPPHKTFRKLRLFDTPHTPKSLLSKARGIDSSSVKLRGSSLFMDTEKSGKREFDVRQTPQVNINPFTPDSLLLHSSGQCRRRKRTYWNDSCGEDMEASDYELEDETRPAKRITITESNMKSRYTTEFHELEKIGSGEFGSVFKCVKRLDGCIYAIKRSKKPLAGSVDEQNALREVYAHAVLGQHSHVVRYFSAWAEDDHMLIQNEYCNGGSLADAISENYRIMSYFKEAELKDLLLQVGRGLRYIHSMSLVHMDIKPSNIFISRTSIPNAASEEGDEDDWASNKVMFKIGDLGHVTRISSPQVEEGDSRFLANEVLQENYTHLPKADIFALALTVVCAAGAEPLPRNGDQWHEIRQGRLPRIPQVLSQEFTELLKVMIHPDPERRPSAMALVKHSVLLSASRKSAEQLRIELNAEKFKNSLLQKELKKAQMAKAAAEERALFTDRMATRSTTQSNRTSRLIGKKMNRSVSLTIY
T3 sequence (Q96SW2 whole entry): as the sequence (Q96SW2 whole entry) above
T3 sequence (Q16531 whole entry partner): as the sequence (Q16531 whole entry partner) above
Summary of the method: as §1

IKZF3 = biological target: T4, IKZF3 (Homo sapiens, UniProt Q96SW2+Q9UKT9); assay: Western blot degradation of IKZF3 in hPBMCs (24 h)
T4 construct: The supernatant was aspirated as the extracted total cell protein; endogenous in cells; host or cells: human peripheral blood mononuclear cells (hPBMCs)
T4 sequence (Q9UKT9 whole entry): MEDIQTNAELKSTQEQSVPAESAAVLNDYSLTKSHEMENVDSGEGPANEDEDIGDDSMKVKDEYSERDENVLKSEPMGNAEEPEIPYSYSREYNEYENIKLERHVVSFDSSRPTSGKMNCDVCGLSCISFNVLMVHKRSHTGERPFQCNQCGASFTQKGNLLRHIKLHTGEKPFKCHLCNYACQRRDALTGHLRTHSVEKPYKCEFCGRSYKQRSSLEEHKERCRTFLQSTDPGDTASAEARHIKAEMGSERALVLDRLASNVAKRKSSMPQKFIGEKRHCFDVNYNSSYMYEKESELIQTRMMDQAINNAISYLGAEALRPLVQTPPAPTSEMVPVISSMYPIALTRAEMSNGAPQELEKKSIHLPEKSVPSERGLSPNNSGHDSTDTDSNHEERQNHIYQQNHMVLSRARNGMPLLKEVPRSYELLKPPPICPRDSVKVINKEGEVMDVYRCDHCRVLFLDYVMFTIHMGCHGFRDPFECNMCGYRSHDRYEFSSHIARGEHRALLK
T4 sequence (Q96SW2 whole entry): as the sequence (Q96SW2 whole entry) above
T4 sequence (Q16531 whole entry partner): as the sequence (Q16531 whole entry partner) above
Summary of the method: as §1

CK1α = biological target: T5, CK1α (Homo sapiens, UniProt P48729+Q96SW2); assay: Western blot degradation of CK1α in hPBMCs (24 h)
T5 construct: The supernatant was aspirated as the extracted total cell protein; endogenous in cells; host or cells: human peripheral blood mononuclear cells (hPBMCs)
Summary of the method: as §1

GSPT1 = biological target: T6, GSPT1 (Homo sapiens, UniProt P15170+Q96SW2); assay: Western blot degradation of GSPT1 in hPBMCs (24 h)
T6 construct: The supernatant was aspirated as the extracted total cell protein; endogenous in cells; host or cells: human peripheral blood mononuclear cells (hPBMCs)
T6 sequence (P15170 whole entry): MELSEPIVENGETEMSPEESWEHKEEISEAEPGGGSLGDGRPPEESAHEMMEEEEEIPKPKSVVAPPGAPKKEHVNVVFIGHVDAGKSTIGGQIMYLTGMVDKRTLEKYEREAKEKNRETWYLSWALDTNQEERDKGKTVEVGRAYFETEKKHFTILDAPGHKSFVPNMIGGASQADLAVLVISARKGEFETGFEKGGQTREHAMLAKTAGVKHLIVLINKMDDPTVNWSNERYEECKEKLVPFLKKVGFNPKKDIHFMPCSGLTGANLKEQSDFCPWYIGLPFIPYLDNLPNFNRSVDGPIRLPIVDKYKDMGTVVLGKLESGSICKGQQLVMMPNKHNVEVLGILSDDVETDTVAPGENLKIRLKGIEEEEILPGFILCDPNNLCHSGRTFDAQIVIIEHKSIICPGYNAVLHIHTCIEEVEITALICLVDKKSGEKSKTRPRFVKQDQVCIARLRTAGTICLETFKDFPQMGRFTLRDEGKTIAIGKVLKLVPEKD
T6 sequence (Q96SW2 whole entry): as the sequence (Q96SW2 whole entry) above
T6 sequence (Q16531 whole entry partner): as the sequence (Q16531 whole entry partner) above
Summary of the method: as §1

Structure (SMILES) | IKZF1 substrate protein remaining % (IKZF1) | IKZF2 substrate protein remaining % (IKZF2) | WEE1 substrate protein remaining % (WEE1) | IKZF3 substrate protein remaining % (IKZF3) | CK1α substrate protein remaining % (CK1α) | GSPT1 substrate protein remaining % (GSPT1)
O=C1CCN(N2Cc3cc(CN4CCC(c5ccccc5C(F)(F)F)CC4)ccc3C2=O)C(=O)N1 [GT-06891, 1-(1-oxo-5-((4-(2-(trifluoromethyl)phenyl)piperidin-1-yl)methyl)isoindolin-2-yl)dihydropyrimidine-2,4(1H,3H)-dione] | B (80%< substrate protein remaining % ≤100%) | A (0% ≤ substrate protein remaining % ≤80%) | A (0% ≤ substrate protein remaining % ≤80%) | B (80%< substrate protein remaining % ≤100%) | B (80%< substrate protein remaining % ≤100%) | A (0% ≤ substrate protein remaining % ≤80%)
Cc1ccc(N2CCN(Cc3ccc4c(c3)CN(N3CCC(=O)NC3=O)C4=O)CC2)s1 [GT-05083, 1-(5-((4-(5-methylthiophen-2-yl)piperazin-1-yl)methyl)-1-oxoisoindolin-2-yl)dihydropyrimidine-2,4(1H,3H)-dione] | B (80%< substrate protein remaining % ≤100%) | A (0% ≤ substrate protein remaining % ≤80%) | B (80%< substrate protein remaining % ≤100%) | B (80%< substrate protein remaining % ≤100%) | B (80%< substrate protein remaining % ≤100%) | B (80%< substrate protein remaining % ≤100%)
Cc1cc2c(N3CCN(Cc4ccc5c(c4)CN(N4CCC(=O)NC4=O)C5=O)CC3)ncnc2s1 [GT-08059, 1-(5-((4-(6-methylthieno[2,3-d]pyrimidin-4-yl)piperazin-1-yl)methyl)-1-oxoisoindolin-2-yl)dihydropyrimidine-2,4(1H,3H)-dione] | B (80%< substrate protein remaining % ≤100%) | B (80%< substrate protein remaining % ≤100%) | B (80%< substrate protein remaining % ≤100%) | A (0% ≤ substrate protein remaining % ≤80%) | B (80%< substrate protein remaining % ≤100%) | B (80%< substrate protein remaining % ≤100%)
CC1(C)CCC(CN2CC3CCC(C2)N3Cc2ccc3c(c2)CN(N2CCC(=O)NC2=O)C3=O)=C(c2ccc(Cl)cc2)C1 [GT-07330, 1-(5-((3-((4′-chloro-5,5-dimethyl-3,4,5,6-tetrahydro-[1,1′-biphenyl]-2-yl)methyl)-3,8-diazabicyclo[3.2.1]octan-8-yl)methyl)-1-oxoisoindolin-2-yl)dihydropyrimidine-2,4(1H,3H)-dione] | A (0% ≤ substrate protein remaining % ≤80%) | A (0% ≤ substrate protein remaining % ≤80%) | A (0% ≤ substrate protein remaining % ≤80%) | A (0% ≤ substrate protein remaining % ≤80%) | B (80%< substrate protein remaining % ≤100%) | A (0% ≤ substrate protein remaining % ≤80%)
CC1(C)CCC(CN2CC3CCC2CN3Cc2ccc3c(c2)CN(N2CCC(=O)NC2=O)C3=O)=C(c2ccc(Cl)cc2)C1 (stereo not drawn) [GT-07331, 1-(5-((5-((4′-chloro-5,5-dimethyl-3,4,5,6-tetrahydro-[1,1′-biphenyl]-2-yl)methyl)-2,5-diazabicyclo[2.2.2]octan-2-yl)methyl)-1-oxoisoindolin-2-yl)dihydropyrimidine-2,4(1H,3H)-dione] | A (0% ≤ substrate protein remaining % ≤80%) | B (80%< substrate protein remaining % ≤100%) | A (0% ≤ substrate protein remaining % ≤80%) | A (0% ≤ substrate protein remaining % ≤80%) | A (0% ≤ substrate protein remaining % ≤80%) | A (0% ≤ substrate protein remaining % ≤80%)
O=C1CCN(N2Cc3cc(CN4CCN(c5ccc(Cl)nc5)CC4)ccc3C2=O)C(=O)N1 [GT-05435, 1-(5-((4-(6-chloropyridin-3-yl)piperazin-1-yl)methyl)-1-oxoisoindolin-2-yl)dihydropyrimidine-2,4(1H,3H)-dione] | B (80%< substrate protein remaining % ≤100%) | B (80%< substrate protein remaining % ≤100%) | A (0% ≤ substrate protein remaining % ≤80%) | B (80%< substrate protein remaining % ≤100%) | B (80%< substrate protein remaining % ≤100%) | A (0% ≤ substrate protein remaining % ≤80%)
O=C1CCN(N2Cc3cc(CN4CCN(c5cc(F)ccc5F)CC4)ccc3C2=O)C(=O)N1 [GT-06779, 1-(5-((4-(2,5-difluorophenyl)piperazin-1-yl)methyl)-1-oxoisoindolin-2-yl)dihydropyrimidine-2,4(1H,3H)-dione] | B (80%< substrate protein remaining % ≤100%) | B (80%< substrate protein remaining % ≤100%) | B (80%< substrate protein remaining % ≤100%) | B (80%< substrate protein remaining % ≤100%) | A (0% ≤ substrate protein remaining % ≤80%) | B (80%< substrate protein remaining % ≤100%)
O=C1CCN(N2Cc3cc(CN4CCC(c5ccc(F)cc5)CC4)ccc3C2=O)C(=O)N1 [GT-06890, 1-(5-((4-(4-fluorophenyl)piperidin-1-yl)methyl)-1-oxoisoindolin-2-yl)dihydropyrimidine-2,4(1H,3H)-dione] | B (80%< substrate protein remaining % ≤100%) | B (80%< substrate protein remaining % ≤100%) | A (0% ≤ substrate protein remaining % ≤80%) | B (80%< substrate protein remaining % ≤100%) | B (80%< substrate protein remaining % ≤100%) | A (0% ≤ substrate protein remaining % ≤80%)
O=C1CCN(N2Cc3cc(CN4CCN(c5nc(N6CCNCC6)c6sccc6n5)CC4)ccc3C2=O)C(=O)N1 [GT-08949, 1-(1-oxo-5-((4-(4-(piperazin-1-yl)thieno[3,2-d]pyrimidin-2-yl)piperazin-1-yl)methyl)isoindolin-2-yl)dihydropyrimidine-2,4(1H,3H)-dione] | B (80%< substrate protein remaining % ≤100%) | B (80%< substrate protein remaining % ≤100%) | B (80%< substrate protein remaining % ≤100%) | B (80%< substrate protein remaining % ≤100%) | B (80%< substrate protein remaining % ≤100%) | A (0% ≤ substrate protein remaining % ≤80%)
